{
  "source": "patent US20230301909A1",
  "about": "(The University of Tokyo, priority 2020, published 2023)",
  "system": "human placenta",
  "assay": "Human placental perfusion model (ex vivo placental permeability)",
  "type": "in vitro ADME",
  "details": "FIG. 12A",
  "description": "For this Example, the permeability of polymer micelles, low molecular compounds and polymers of different sizes through the human placenta was evaluated using a human placental perfusion model.\nThe human placental perfusion model was created according to NPL 4 (K. Shintaku et. al., Drug Metab. Dispos. 37 (2009) 962) and NPL 5 (J. R. Huston et. al., Clin, Pharmacol. Ther, 90 (2011) 67). […] DACH-platin encapsulating micelles (30 nm and 70 nm particle sizes) (DACH-platin dose: 85.4 mg/L), oxaliplatin (2.7 mg/L.) and Cy3-labeled 8-arm PEG (fluorescence intensity: 3,000 (RFU)) were perfused for 60 minutes, and 1 ml of each solution was recovered every 5 minutes from the vein on the fetus side. The platinum contents of the recovered samples from the oxaliplatin-and DACH-platin encapsulating micelle-administered groups were measured by inductively coupled […] mass spectrometry. The fluorescence intensities of the polymers were quantified by HPLC. […]\nThe human placental perfusion model was created according to NPL 4 (K. Shintaku et. al., Drug Metab. Dispos. 37 (2009) 962) and NPL 5 (J. R. Huston et. al., Clin. Pharmacol. Ther. 90 (2011) 67). […] The pH of the recovered sample was adjusted, releasing the nicotinamide, and the nicotinamide in the solution was measured by HPLC (detector: EXTREMA by JASCO Corp., column: TSKgel ODS-120H by Tosoh Corp., 1.9 μm). […]",
  "data": [
    {"smiles": "O=C1[O][Pt]2([NH][C@@H]3CCCC[C@H]3[NH]2)[O]C1=O", "note": "[oxaliplatin]", "values": [
      {"measurement": "accumulation in the placenta", "setting": "human placental perfusion", "result": "accumulation of oxaliplatin in the placenta"},
      {"measurement": "permeation through the placenta", "setting": "perfused for 60 minutes, fetus-side vein samples", "result": "permeated the placenta"}
    ]}
  ]
}
